In patent publication US9833437B2 (priority 2014, dated 2017):
Values joined by “and” are separate entries in the source; they are usually repeats but may differ in a detail not shown here. Equal values may be shown once. Read-outs that look alike come from different tables or passages of the source.

Columns and labels:
[1] = tested on: MyD88-mediated NF-kB driven SEAP reporter response; format: cell-based, human
[2] = tested on: pro-inflammatory cytokine production of human PBMCs; format: cell-based
[3] = tested on: SEB-induced toxic shock in BALB/c mice; conditions: mouse, in vivo
[4] = target: T1, MyD88 and IRF3 interaction (Homo sapiens, UniProt Q99836); format: cell-based
T1 construct: no number printed for the IRF3-HA plasmid; host or cells: HEK293-TLR3 (InvivoGen)
T1 sequence (Q99836 whole entry): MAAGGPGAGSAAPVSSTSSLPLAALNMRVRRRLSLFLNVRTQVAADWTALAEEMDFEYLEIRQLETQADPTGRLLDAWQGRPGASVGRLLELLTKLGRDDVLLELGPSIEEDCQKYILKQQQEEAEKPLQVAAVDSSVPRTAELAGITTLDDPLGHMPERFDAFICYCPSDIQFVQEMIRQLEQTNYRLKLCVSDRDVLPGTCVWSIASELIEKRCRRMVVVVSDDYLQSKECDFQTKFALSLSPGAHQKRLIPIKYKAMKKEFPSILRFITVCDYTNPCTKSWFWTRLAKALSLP

VEEV (TC-83) = tested on: VEEV (TC-83); design: species or system C3H/HeN mice; conditions: mouse, in vivo, ip
Lassa virus = format: cell-based; conditions: read-out: IC50 reduction of virus replication
IRF3 phosphorylation = format: cell-based, human
Ebola virus = format: cell-based; conditions: read-out: IC50 reduction of virus replication
HEK293-TLR3 cells = format: cell-based, human
dengue virus = format: cell-based; conditions: read-out: IC50 reduction of virus replication
[5] = tested on: lethal endotoxic shock (LPS) in mice; conditions: mouse, in vivo
[6] = tested on: human glioblastoma astrocytoma U87 cells; format: cell-based
[7] = tested on: pro-inflammatory cytokine production in spleen cells of BALB/c and C57BL/6 mice; format: cell-based, mouse
U937 cells = format: cell-based, human
Rift valley fever virus = format: cell-based; conditions: read-out: IC50 reduction of virus replication

CC(C)[C@H](NC(=O)CCc1ccccc1)C(=O)N1CCCC1 [Compound 1, Hydrocinnamoyl-L-valyl-pyrrolidine, reference compound]
IC50 [1]: 180 µM | IC50 ([2]; read-out: IC50 IFN-γ): 41 µM and 40 µM | IC50 ([2]; read-out: IC50 IL-1β): 24 µM | IC50 ([2]; read-out: IC50 IL-6): 14 µM | IC50 ([2]; read-out: IC50 TNF-α): 19 µM

CC(C)[C@@H](C(=O)N1CCCC1)N(CCCc1ccccc1)C(=O)[C@H]1CC[C@H](C(=O)N(CCCc2ccccc2)[C@H](C(=O)N2CCCC2)C(C)C)CC1 [Compound 4210]
amount giving therapeutic efficacy from toxic shock-induced death with lethal SEB challenge [3]: 1 mg | effect on death, post-exposure treatment [3]: delayed in death | protection [3]: completely protected | protection, post-exposure treatment [3]: 33% | survivability [3]: 33% and 66% | MyD88-associated IRF3 band after pull down with Flag antibody [4]: dose dependent decrease of IRF3 band | clinical disease score (VEEV (TC-83)): less clinical diseases score | survival (VEEV (TC-83)): increased survival | weight loss (VEEV (TC-83)): significantly prevented weight loss | IC50 (Lassa virus): 35 µM | inhibition of cytokine production [2]: inhibited cytokine production | IC50 ([2]; read-out: IC50 IFN-γ): 0.3 µM and 0.9 µM | IC50 ([2]; read-out: IC50 IL-1β): 0.73 µM | IC50 ([2]; read-out: IC50 IL-6): 0.4 µM and 0.17 µM | IC50 ([2]; read-out: IC50 TNF-α): 0.27 µM | IC50 ([2]; read-out: average inhibitory concentration (IC50) for most of the pro-inflammatory cytokines tested): 1 to 50 µM | phosphorylation of IRF-3 (IRF3 phosphorylation): increase in phosphorylation was observed in a dose dependent manner | IC50 (Ebola virus): 42 µM | RANTES production (HEK293-TLR3 cells): increased in RANTES production | IC50 (dengue virus): 31 µM | effect on death [5]: delayed death | mice protected from lethal endotoxic shock [5]: 33% | IFN-β production [6]: increased IFN-β production in a dose dependent manner | RANTES production [6]: increase in RANTES production | inhibition of pro-inflammatory cytokine production in spleen cell cultures [7]: inhibited most of the pro-inflammatory cytokine production | RANTES production (U937 cells): increase in antiviral RANTES production | expression of co-stimulatory molecules CD86 and CD80 (U937 cells): increased expression co-stimulatory molecules such as CD86 and CD80 | increase in IFN-β production (U937 cells): over 3 fold | IC50 (Rift valley fever virus): 22 µM
